Experimental data from US11591352B2, “Method for treatment of senescence-related disorders” (SPRINGTIDE VENTURES S.R.O., priority 2016, dated 2023).
Like-named read-outs stand apart in the source and are kept apart here. Values belong to the compound of their own block, whether it stands above or below them.

Assays:
[1] = system: control retinal pigment epithelial cells (RPE); assay: Viability (annexin V/Hoechst) of control RPE cells; assay type: cell-based; settings: for % of Annexin V-/Hoechst-cells: ctrl
Procedure: (§3) The effect of compounds 7, 8, 10, 15 on primary senescent cells (retinal pigment epithelial cells (RPE) treated for 8 days with 100 μM 5-bromo-2-deoxyuridine (BrdU)) was tested.

[2] = system: senescent retinal pigment epithelial cells (RPE) treated with BrdU; assay: Viability (annexin V/Hoechst) of senescent RPE cells; settings: for % of Annexin V-/Hoechst-cells: BrdU; for selectivity of cytotoxicity for senescent versus control cells (in words): senescent (BrdU) vs control RPE cells
Procedure: as §3

[3] = system: B-gal positive (senescent) cells in lungs; assay: B-gal staining of lungs of young and naturally old FVB mice treated with compound 8; assay type: in vivo; settings: for % of B-gal positive cells: 1 μg/g every week for 4 weeks
Procedure: We first analyzed the presence of senescent cells (using B-galactosidase (B-gal) staining) in organs in these two groups. From all tested organs (lungs, brain, white adipose tissue and stomach), we detected the biggest difference in presence of B-gal-positive cells in lungs (not shown). In the next step we treated the mice (6×19 month old mice+6×2 month old mice) with 1 dose of compound 8 (1 μg of compound 8/1 g mouse) every week for a period of 4 weeks. Mice (5×19 month old mice+6×2 month old mice) treated only with a corn oil without compound 8 were used as a control. After 4 weeks we removed lungs and detected percentage of B-gal positive cells in the tissues.

[4] = system: p16, p21 and plasminogen activator inhibitor (PAI) mRNA; assay: qRT PCR of senescent markers in organs of young and old FVB mice; assay type: in vivo
BxPC-3 (senescent) = assay: Viability (Annexin V/Hoechst) of senescent pancreatic cells; assay type: cell-based; settings: 48 h
Procedure: (§1) We tested the effect of compound 8 on cultured senescent pancreatic cells. We used three pancreatic cell lines (PANC-1, PaTu and BxPC-3) exposed to 100 μM BrdU for 6 days to induce senescence. These senescent cells were treated with different doses of compound 8 for 48 h and their viability was assessed. […] RPE cells, as the most sensitive tested cells, were used as a control to establish the concentration at which compound 8 is not toxic for non-senescent cells.

PANC-1 (senescent) = assay: as above; assay type: cell-based; settings: 48 h
Procedure: as §1

PaTu (senescent) = assay: as above; assay type: cell-based; settings: 48 h
Procedure: as §1

RPE (control) = assay: Viability (Annexin V/Hoechst) of non-senescent control cells; assay type: cell-based; settings: 48 h
Procedure: as §1

[5] = system: p16, p21 and PAI mRNA in 4T1 cell-derived tumours; assay: qRT PCR of senescent markers in 4T1 cell-derived tumours; assay type: in vivo, Balb-c mice
[6] = system: p16, p21 and PAI mRNA in FVB/cneu spontaneous tumours; assay: qRT PCR of senescent markers in spontaneous tumours; assay type: in vivo, FVB mice
[7] = system: p16 and p21 mRNA in PDX (triple-negative breast tumour); assay: qRT PCR of senescence markers in patient-derived xenografts; assay type: in vivo, NOD scid gamma mice
Procedure: Importantly, we repeated this experiment using patient-derived xenografts (PDXs; triple-negative breast tumour) transplanted into NOD scid gamma mice and treated with compound 8 (0.375 mg of compound 8/mouse, twice per week for a period of 2-3 weeks).

RPE cells = assay: Lactate production in RPE cells; assay type: cell-based
Description: (§2) Adenin nucleotid translocase 2 (ANT2) is a protein important for translocation of ATP from cytoplasm to mitochondria unlike two other members of ANT family, ANT1 and ANT3, participating in classical transfer of ADP into mitochondria via complex V during mitochondrial respiration. ANT2 plays a key role in maintenance of mitochondrial potential and in preserving intact mitochondria, especially in tumour cells. […] All these experiments show a key role of ANT2 in compound 8 resistance.

[8] = system: RPE cells (siNC / siANT2); assay: Viability of RPE cells after ANT2 downregulation by siRNA; assay type: cell-based
Description: as §2

[9] = system: RPE cells with inducible ANT2; assay: Viability of RPE cells transfected with inducible ANT2; assay type: cell-based
Description: as §2

[10] = system: senescent retinal pigment epithelial cells (RPE) treated with BrdU
Procedure: as §3

[11] = BALBe/4T1 tumors, treated, 0.2 mg/mouse twice per week for 2-3 weeks
[12] = FVB/cneu tumors, treated, 0.2 mg/mouse twice per week for 2-3 weeks
[13] = PDX tumors, treated, 0.375 mg/mouse twice per week for 2-3 weeks

Structure (SMILES): CC/C(=C(\c1ccccc1)c1ccc(OCCN(C)C)cc1)c1ccccc1 [Tamoxifen]
- % of Annexin V-/Hoechst-cells ([1]; 1 μM): 97.0%
- % of Annexin V-/Hoechst-cells ([1]; 2.5 μM): 96.7%
- % of Annexin V-/Hoechst-cells ([1]; 5 μM): 94.7%
- % of Annexin V-/Hoechst-cells ([1]; 10 μM): 55.8%
- % of Annexin V-/Hoechst-cells ([1]; 20 μM): 2.15%
- decrease of viability (in words) ([2]; 10 μM, both senescent and control cells): by about half
- cytotoxicity (in words) ([2]; 20 μM, both senescent and control cells): highly cytotoxic
- % of Annexin V-/Hoechst-cells ([2]; 1 μM): 73.8%
- % of Annexin V-/Hoechst-cells ([2]; 2.5 μM): 73.0%
- % of Annexin V-/Hoechst-cells ([2]; 5 μM): 70.1%
- % of Annexin V-/Hoechst-cells ([2]; 10 μM): 33.8%
- % of Annexin V-/Hoechst-cells ([2]; 20 μM): 4.3%
- selectivity of cytotoxicity for senescent versus control cells (in words) [2]: does not at any tested concentration have a significantly higher toxicity for senescent cells than for control cells
- cytotoxicity (in words) ([2]; up to 5 μM, senescent and control cells): does not show cytotoxicity

Structure (SMILES): CN(C)CCOc1ccc(/C(=C(/CCCCCCCCCCBr)c2ccccc2)c2ccccc2)cc1 [compound 7]
- % of Annexin V-/Hoechst-cells ([1]; 0.05 μM): 94.6%
- % of Annexin V-/Hoechst-cells ([1]; 0.1 μM): 95.1%
- % of Annexin V-/Hoechst-cells ([1]; 0.5 μM): 91.4%
- % of Annexin V-/Hoechst-cells ([2]; 0.05 μM): 80.5%
- % of Annexin V-/Hoechst-cells ([2]; 0.1 μM): 78.3%
- % of Annexin V-/Hoechst-cells ([2]; 0.5 μM): 55.3%
- selectivity of cytotoxicity for senescent versus control cells (in words) [2]: selectively more cytotoxic to senescent cells

- Lactate production (fold induction) (RPE cells; RPE BrdU (senescent) treated): 8.2 fold induction
- Lactate production (fold induction) (RPE cells; RPE ctrl treated): 1.6 fold induction
Structure (SMILES): CN(C)CCOc1ccc(/C(=C(/CCCCCCCCCC[P+](c2ccccc2)(c2ccccc2)c2ccccc2)c2ccccc2)c2ccccc2)cc1.[Br-] [compound 8]
- % of B-gal positive cells ([3]; 2 month old mice): 0.3%
- % of B-gal positive cells ([3]; 19 month old mice): 0.7%
- number of B-gal-positive cells after treatment (in words) ([3]; old mice): decrease of their number
- PAI mRNA fold change ([4]; kidney, 2 m treated): 0.47 (+/− 0.09) fold change
- p16 mRNA fold change ([4]; kidney, 2 m treated): 0.02 (+/− 0.01) fold change
- p21 mRNA fold change ([4]; kidney, 2 m treated): 0.25 (+/− 0.05) fold change
- PAI mRNA fold change ([4]; kidney, 19 m treated): 0.79 (+/− 0.17) fold change
- p16 mRNA fold change ([4]; kidney, 19 m treated): 0.79 (+/− 0.31) fold change
- p21 mRNA fold change ([4]; kidney, 19 m treated): 0.34 (+/− 0.11) fold change
- PAI mRNA fold change ([4]; lungs, 2 m treated): 0.69 (+/− 0.12) fold change
- p16 mRNA fold change ([4]; lungs, 2 m treated): 0.63 (+/− 0.07) fold change
- p21 mRNA fold change ([4]; lungs, 2 m treated): 0.30 (+/− 0.06) fold change
- PAI mRNA fold change ([4]; lungs, 19 m treated): 0.93 (+/− 0.22) fold change
- p16 mRNA fold change ([4]; lungs, 19 m treated): 0.74 (+/− 0.12) fold change
- p21 mRNA fold change ([4]; lungs, 19 m treated): 0.39 (+/− 0.03) fold change
- level of senescent markers p16, p21, PAI mRNA after treatment (in words) ([4]; old mouse tissue): decreased almost to control levels
- % of AnnexinV-/Hoechst-cells (BxPC-3 (senescent); 0.1 μM): 47.7 (+/− 0.49) %
- % of AnnexinV-/Hoechst-cells (BxPC-3 (senescent); 0.5 μM): 35.9 (+/− 6.22) %
- % of AnnexinV-/Hoechst-cells (BxPC-3 (senescent); 1 μM): 4.8 (+/− 0.83) %
- % of AnnexinV-/Hoechst-cells (BxPC-3 (senescent); 2.5 μM): 3.9 (+/− 1.69) %
- % of AnnexinV-/Hoechst-cells (PANC-1 (senescent); 0.1 μM): 92.3 (+/− 0.78) %
- % of AnnexinV-/Hoechst-cells (PANC-1 (senescent); 0.5 μM): 92.7 (+/− 1.27) %
- % of AnnexinV-/Hoechst-cells (PANC-1 (senescent); 1 μM): 5.0 (+/− 1.97) %
- % of AnnexinV-/Hoechst-cells (PANC-1 (senescent); 2.5 μM): 3.1 (+/− 0.68) %
- % of AnnexinV-/Hoechst-cells (PaTu (senescent); 0.1 μM): 24.7 (+/− 3.25) %
- % of AnnexinV-/Hoechst-cells (PaTu (senescent); 0.5 μM): 10.3 (+/− 0.97) %
- % of AnnexinV-/Hoechst-cells (PaTu (senescent); 1 μM): 3.6 (+/− 3.24) %
- % of AnnexinV-/Hoechst-cells (PaTu (senescent); 2.5 μM): 2.4 (+/− 1.21) %
- % of AnnexinV-/Hoechst-cells (RPE (control); 0.1 μM): 98.9 (+/− 0.14) %
- % of AnnexinV-/Hoechst-cells (RPE (control); 0.5 μM): 98.8 (+/− 0.21) %
- % of AnnexinV-/Hoechst-cells (RPE (control); 1 μM): 98.3 (+/− 0.14) %
- % of AnnexinV-/Hoechst-cells (RPE (control); 2.5 μM): 99.1 (+/− 0.35) %
- PAI mRNA fold change [5, 11]: 0.59 (+/− 0.22) fold change
- p16 mRNA fold change [5, 11]: 0.20 (+/− 0.08) fold change
- p21 mRNA fold change [5, 11]: 0.77 (+/− 0.18) fold change
- increase of senescent markers p16, p21 and PAI on the mRNA level (in words) ([5]; Balb-c mice with 4T1 tumours, 0.2 mg/mouse twice per week, 2-3 weeks): did not observe any increase
- increase of senescent markers p16, p21 and PAI on the mRNA level (in words) ([6]; FVB mice with spontaneous tumours, 0.2 mg/mouse twice per week, 2-3 weeks): did not observe any increase
- PAI mRNA fold change [6, 12]: 1.93 (+/− 1.19) fold change
- p16 mRNA fold change [6, 12]: 0.39 (+/− 0.24) fold change
- p21 mRNA fold change [6, 12]: 1.94 (+/− 1.43) fold change
- increase of senescence markers (in words) ([7]; PDX in NOD scid gamma mice, 0.375 mg/mouse twice per week, 2-3 weeks): no increase
- p2l mRNA fold change [7, 13]: 0.72 (+/− 0.84) fold change
- p16 mRNA fold change [7, 13]: 1.34 (+/− 1.25) fold change
- % of AnnexinV-/Hoechst-cells ([8]; RPE siANT2 treated): 20.7%
- % of AnnexinV-/Hoechst-cells ([8]; RPE siNC treated): 90.5%
- death of control cells with downregulated ANT2 after treatment (in words) ([8]; RPE, ANT2 siRNA): increased death of these cells
- resistance of senescent cells with induced ANT2 towards treatment (in words) ([9]; RPE BrdU + ANT2): increased resistance
- % of AnnexinV-/Hoechst-cells ([9]; RPE BrdU + ANT2 treated): 53.8%
- % of AnnexinV-/Hoechst-cells ([9]; RPE BrdU treated): 6.8%
- % of AnnexinV-/Hoechst-cells ([9]; RPE ctrl + ANT2 treated): 95.2%
- % of AnnexinV-/Hoechst-cells ([9]; RPE ctrl treated): 95.0%
- effect on control cells (in words) ([1]; control RPE): without any effect on control cells
- % of Annexin V-/Hoechst-cells ([1]; 1 μM): 93.0%
- % of Annexin V-/Hoechst-cells ([1]; 2.5 μM): 90.3%
- % of Annexin V-/Hoechst-cells ([1]; 5 μM): 3.1%
- selectivity of cytotoxicity for senescent versus control cells (in words) [10]: selectively more cytotoxic to senescent cells
- % of Annexin V-/Hoechst-cells ([2]; 1 μM): 67.0%
- % of Annexin V-/Hoechst-cells ([2]; 2.5 μM): 13.9%
- % of Annexin V-/Hoechst-cells ([2]; 5 μM): 0.8%
- effect on elimination of senescent cells (in words) ([2]; RPE, 100 μM BrdU for 8 days): specific effect on elimination of senescent cells
